{"source": "patent US9113629B2", "about": "“4-amino-6-(4-substituted-phenyl)-picolinates and 6-amino-2-(4-substituted-phenyl)-pyrimidine-4-carboxylates and their use as herbicides” (DOW AGROSCIENCES LLC, priority 2013, dated 2015)", "key": {"[1]": {"test_system": "Key Broadleaf Weed and Crop Species", "experiment": "Post-emergent Test II herbicidal activity (Table 5)", "assay_type": "in vivo", "details": "post-emergence, 336 h, 14 days after application; for pest or weed control at 70 g/ha: application rate 70 g ai/ha; for pest or weed control at 140 g/ha: application rate 140 g ai/ha", "how_it_was_run": "(§1)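 Compounds, dissolved in 97:3 acetone/DMSO and diluted into an aqueous carrier containing crop oil concentrate and Triton X-155, are applied over the top of young plants at 187 L/ha. Injury is scored visually at 14 d, 0% meaning no effect and 100% complete kill.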"}, "[2]": {"test_system": "Key Grass and Sedge Weeds as well as Grass Crops", "experiment": "Post-emergent Test II herbicidal activity (Table 6)", "assay_type": "in vivo", "details": "post-emergence, 336 h; for pest or weed control at 70 g/ha: 70 g ai/ha; for pest or weed control at 140 g/ha: 140 g ai/ha", "how_it_was_run": "as §1"}, "[3]": {"details": "ABUTH: velvetleaf (Abutilon theophrasti), read-out: Visual Growth Reduction (%) 14 Days After Application, ABUTH"}, "[4]": {"details": "AMARE: redroot pigweed (Amaranthus retroflexus), read-out: Visual Growth Reduction (%) 14 Days After Application, AMARE"}, "[5]": {"details": "BRSNN: oilseed-rape, canola (Brassica napus), read-out: Visual Growth Reduction (%) 14 Days After Application, BRSNN"}, "[6]": {"details": "CHEAL: lambsquarters (Chenopodium album), read-out: Visual Growth Reduction (%) 14 Days After Application, CHEAL"}, "[7]": {"details": "EPHHL: wild poinsettia (Euphorbia heterophylla), read-out: Visual Growth Reduction (%) 14 Days After Application, EPHHL"}, "[8]": {"details": "HELAN: sunflower (Helianthus annuus), read-out: Visual Growth Reduction (%) 14 Days After Application, HELAN"}, "[9]": {"details": "VIOTR: wild pansy (Viola tricolor), read-out: Visual Growth Reduction (%) 14 Days After Application, VIOTR"}, "[10]": {"details": "CYPES: yellow nutsedge (Cyperus esculentus), read-out: Visual Growth Reduction (%) 14 Days After Application, CYPES"}, "[11]": {"details": "DIGSA: crabgrass (Digitaria sanguinalis), read-out: Visual Growth Reduction (%) 14 Days After Application, DIGSA"}, "[12]": {"details": "ECHCG: barnyardgrass (Echinochloa crus-galli), read-out: Visual Growth Reduction (%) 14 Days After Application, ECHCG"}, "[13]": {"details": "ORYSA: rice (Oryza sativa), crop, read-out: Visual Growth Reduction (%) 14 Days After Application, ORYSA"}, "[14]": {"details": "SETFA: giant foxtail (Setaria faberi), read-out: Visual Growth Reduction (%) 14 Days After Application, SETFA"}, "[15]": {"details": "SORVU: grain sorghum (Sorghum vulgare), read-out: Visual Growth Reduction (%) 14 Days After Application, SORVU"}, "[16]": {"details": "TRZSS (wheat, Triticum aestivum), crop, read-out: Visual Growth Reduction (%) 14 Days After Application, TRZSS"}, "[17]": {"details": "ZEAMX: maize, corn (Zea mays), crop, read-out: Visual Growth Reduction (%) 14 Days After Application, ZEAMX"}}, "note": "Where two headings read alike, the source gives them in different places.", "data": [{"smiles": "Nc1c(F)c(-c2ccc(OC(F)F)cc2)nc(C(=O)O)c1Cl", "note": "[Compound 143]", "values": [{"measurement": "pest or weed control at 70 g/ha", "setting": "[1]; [3]", "value": "85 to 94", "unit": "%"}, {"measurement": "pest or weed control at 140 g/ha", "setting": "[1]; [3]", "value": "85 to 94", "unit": "%"}, {"measurement": "pest or weed control at 70 g/ha", "setting": "[1]; [4]", "value": "60 to 74", "unit": "%"}, {"measurement": "pest or weed control at 140 g/ha", "setting": "[1]; [4]", "value": "85 to 94", "unit": "%"}, {"measurement": "pest or weed control at 70 g/ha", "setting": "[1]; [5]", "value": "60 to 74", "unit": "%"}, {"measurement": "pest or weed control at 140 g/ha", "setting": "[1]; [5]", "value": "85 to 94", "unit": "%"}, {"measurement": "pest or weed control at 70 g/ha", "setting": "[1]; [6]", "value": "85 to 94", "unit": "%"}, {"measurement": "pest or weed control at 140 g/ha", "setting": "[1]; [6]", "value": "85 to 94", "unit": "%"}, {"measurement": "pest or weed control at 70 g/ha", "setting": "[1]; [7]", "value": "95 to 100", "unit": "%"}, {"measurement": "pest or weed control at 140 g/ha", "setting": "[1]; [7]", "value": "95 to 100", "unit": "%"}, {"measurement": "pest or weed control at 70 g/ha", "setting": "[1]; [8]", "value": "60 to 74", "unit": "%"}, {"measurement": "pest or weed control at 140 g/ha", "setting": "[1]; [8]", "value": "85 to 94", "unit": "%"}, {"measurement": "pest or weed control at 70 g/ha", "setting": "[1]; [9]", "value": "30 to 44", "unit": "%"}, {"measurement": "pest or weed control at 140 g/ha", "setting": "[1]; [9]", "value": "30 to 44", "unit": "%"}, {"measurement": "pest or weed control at 70 g/ha", "setting": "[2]; [10]", "value": "85 to 94", "unit": "%"}, {"measurement": "pest or weed control at 140 g/ha", "setting": "[2]; [10]", "value": "85 to 94", "unit": "%"}, {"measurement": "pest or weed control at 70 g/ha", "setting": "[2]; [11]", "value": "75 to 84", "unit": "%"}, {"measurement": "pest or weed control at 140 g/ha", "setting": "[2]; [11]", "value": "75 to 84", "unit": "%"}, {"measurement": "pest or weed control at 70 g/ha", "setting": "[2]; [12]", "value": "95 to 100", "unit": "%"}, {"measurement": "pest or weed control at 140 g/ha", "setting": "[2]; [12]", "value": "95 to 100", "unit": "%"}, {"measurement": "pest or weed control at 70 g/ha", "setting": "[2]; [13]", "value": "0 to 29", "unit": "%"}, {"measurement": "pest or weed control at 140 g/ha", "setting": "[2]; [13]", "value": "30 to 44", "unit": "%"}, {"measurement": "pest or weed control at 70 g/ha", "setting": "[2]; [14]", "value": "75 to 84", "unit": "%"}, {"measurement": "pest or weed control at 140 g/ha", "setting": "[2]; [14]", "value": "75 to 84", "unit": "%"}, {"measurement": "pest or weed control at 70 g/ha", "setting": "[2]; [15]", "value": "85 to 94", "unit": "%"}, {"measurement": "pest or weed control at 140 g/ha", "setting": "[2]; [15]", "value": "85 to 94", "unit": "%"}, {"measurement": "pest or weed control at 70 g/ha", "setting": "[2]; [16]", "value": "45 to 59", "unit": "%"}, {"measurement": "pest or weed control at 140 g/ha", "setting": "[2]; [16]", "value": "60 to 74", "unit": "%"}, {"measurement": "pest or weed control at 70 g/ha", "setting": "[2]; [17]", "value": "85 to 94", "unit": "%"}, {"measurement": "pest or weed control at 140 g/ha", "setting": "[2]; [17]", "value": "85 to 94", "unit": "%"}]}]}
